What is called IC50 is the concentration at which inhibition is half-maximal. A lower IC50 goes with inhibition by little substance.

This is an account of results in BindingDB's records for doi:10.3109/14756360903179385 (University of Peshawar, 2010).

The target of the assay is Urease (Canavalia ensiformis, UniProt P07374). Briefly: Urease Inhibition Assay. Conditions: pH 6.8; 30 °C. Here is the method: Reaction mixtures comprising 25 μL of enzyme (jack bean urease) solution and 55 μL of buffer containing 100 mM urea were incubated with 5 μL of test compound (0.5 mM) at 30°C for 15 min in 96-well plates. Urease activity was determined by measuring the ammonia production using the indophenol method, as described by Weatherburn11. Briefly, 45 μL of each phenol reagent (1% (w/v) phenol and 0.005% (w/v) sodium nitroprussside) and 70 μL of alkali reagent (0.5% (w/v) NaOH and 0.1% active chloride, NaOCl) were added to each well. The increasing absorbanceat 630 nm was measured after 50 min, using a microplate reader (Molecular Devices, Sunnyvale, CA, USA). All reactions were performed in triplicate in a final volume of 200 μL. The results (change in absorbance per min) were processed using SoftMax Pro software (Molecular Devices). The entire assay was performed at pH 6.8.
Chain of Urease (P07374 whole entry): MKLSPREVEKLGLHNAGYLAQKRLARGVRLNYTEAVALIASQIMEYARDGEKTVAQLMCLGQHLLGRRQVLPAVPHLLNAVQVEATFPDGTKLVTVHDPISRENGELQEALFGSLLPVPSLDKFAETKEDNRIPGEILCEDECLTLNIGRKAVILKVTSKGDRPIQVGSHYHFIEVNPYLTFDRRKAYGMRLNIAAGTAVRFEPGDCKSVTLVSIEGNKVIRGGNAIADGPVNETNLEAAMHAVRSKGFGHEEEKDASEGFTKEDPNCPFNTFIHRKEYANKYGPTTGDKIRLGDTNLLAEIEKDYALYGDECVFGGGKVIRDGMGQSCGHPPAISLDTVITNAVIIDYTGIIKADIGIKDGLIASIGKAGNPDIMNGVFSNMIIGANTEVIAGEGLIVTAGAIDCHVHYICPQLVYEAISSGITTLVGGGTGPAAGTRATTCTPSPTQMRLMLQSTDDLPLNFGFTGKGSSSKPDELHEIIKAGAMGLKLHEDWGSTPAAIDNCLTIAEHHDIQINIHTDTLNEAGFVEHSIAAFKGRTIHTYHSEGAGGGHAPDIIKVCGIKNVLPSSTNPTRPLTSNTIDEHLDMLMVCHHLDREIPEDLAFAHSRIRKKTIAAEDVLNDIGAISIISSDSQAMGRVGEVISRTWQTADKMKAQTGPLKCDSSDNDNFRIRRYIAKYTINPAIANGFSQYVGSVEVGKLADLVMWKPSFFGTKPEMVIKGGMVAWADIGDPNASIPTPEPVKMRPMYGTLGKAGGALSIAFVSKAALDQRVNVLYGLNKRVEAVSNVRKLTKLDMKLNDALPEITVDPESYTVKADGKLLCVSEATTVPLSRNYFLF
For the compound `O=c1c2cc(O)ccc2oc2cc(O)cc(O)c12` [1,3,7-trihydroxy-9H-xanthen-9-one], the concentration for half-maximal inhibition (IC50) was 138 µM. On to `CCCCCCCCCCCCCCCCCCCCCCCCOC(=O)C=Cc1ccc(O)c(O)c1` [Tetracosyl 3-(3,4-dihydroxyphenyl) acrylate (2)], for which half-maximal inhibition (IC50) required 21 µM. Under `O=c1c2cccc(O)c2oc2c(O)c(O)ccc12` [US9114126, MB5] stands 37.9 µM.
